Reference: patent US5482945A, “Innovative technique for immunosuppression involving administration of rapamycin loaded formed blood elements” (American Home Products Corporation, priority 1992, dated 1996)
Read-outs that look alike come from different tables or passages of the source.

Assays:
[1] = test system: red blood cells; conditions: cited from earlier work
[2] = test system: FKBP; test: Binding of rapamycin to FKBP in formed blood elements (erythrocytes)
[3] = test system: erythrocytes; test: Hemolysis by rapamycin; assay type: cell-based
[4] = Whole blood to plasma concentration ratio in humans receiving rapamycin; assay type: in vivo; conditions: human, read-out: ratio of whole blood to plasma concentrations
Protocol: (§1) In human blood at rapamycin concentrations between 76 and 189 ng/ml, the whole blood and FBE to plasma ratios after 30 minutes incubation at 37° C. were 12±2 and 23.7±3.9 respectively. Similarly, at a concentration of 482 ng/ml, the ratios were 1.1 and 1.3 respectively. The ratios of whole blood to plasma concentrations in monkeys receiving rapamycin was 10±6 and in humans the ratio was 12±2, and indication that a species difference exists between primates and other mammals.

[5] = Equilibrium of rapamycin between formed blood elements (FBE), whole blood and plasma in human blood; assay type: in vitro ADME; conditions: for Kp: formed blood elements, read-out: FBE to plasma ratio
Protocol: as §1

[6] = test system: restenosis (smooth muscle cell proliferation and internal thickening following vascular injury); conditions: cited from earlier work
[7] = test system: lymphatic leukemia, colon and mammary cancers, melanocarcinoma and ependymoblastoma; conditions: cited from earlier work
[8] = test system: humoral (IgE-like) antibodies; conditions: rats, albumin allergic challenge; cited from earlier work
[9] = test system: mouse T-cells; conditions: combination with Cyclosporin A; ionomycin + PMA stimulation; cited from earlier work
[10] = test system: experimental allergic encephalomyolitis; conditions: rats; cited from earlier work
[11] = Whole blood to plasma concentration ratio in monkeys receiving rapamycin; assay type: in vivo; conditions: monkey, read-out: ratio of whole blood to plasma concentrations
Protocol: as §1

[12] = test system: adjuvant arthritis; conditions: rats; cited from earlier work
[13] = test system: transplant rejection; conditions: cited from earlier work
[14] = Equilibrium of rapamycin between formed blood elements (FBE), whole blood and plasma in rat blood; assay type: in vitro ADME; conditions: for Kp: formed blood elements, read-out: FBE to plasma ratio
Protocol: In human blood, erythrocytes comprise about 85 to 90 percent of the formed blood elements (microscopically visible). Human whole blood is comprised of about 46% formed blood elements and 54% plasma. Equilibrium of rapamycin between the rapamycin-loaded formed blood elements (FBE) and the plasma is quickly established and is seen to be species dependent. In rat blood containing rapamycin at a concentration of 38 ng/ml, the whole blood and FBE to plasma ratios were 1.3 and 1.7 respectively and at a concentration of 200 ng/ml the ratios were 0.8 and 0.5 respectively.

[15] = test system: graft rejection; conditions: donor pretreatment intravenously, rats; cited from earlier work
[16] = test system: transplanted tissue or organ; conditions: parenteral administration to donor before transplant; cited from earlier work
[17] = test system: red blood cells; conditions: cited from earlier work; remark: listed apart in the source
[18] = test system: peripheral blood mononuclear cells and erythrocytes; conditions: cited from earlier work
[19] = test system: T-lymphocytes; conditions: cited from earlier work
[20] = test system: FK-506 binding protein (FKBP); conditions: cited from earlier work
[21] = rapamycin 76 to 189 ng/ml, 30 minutes incubation at 37° C.

In the case of `C[C@@H]1[C@H](O)[C@@H](C)/C=C/C=C/C=C/C=C/C=C/C=C/C=C/[C@H](O[C@@H]2O[C@H](C)[C@@H](O)[C@H](N)[C@@H]2O)C[C@@H]2O[C@](O)(C[C@@H](O)C[C@@H](O)[C@H](O)CC[C@@H](O)C[C@@H](O)CC(=O)O[C@H]1C)C[C@H](O)[C@H]2C(=O)O` [Amphotericin B], the “effect on sterols and cell membranes” value [1] is listed as “binds to sterols and perforates cell membranes”.

For `CO[C@H]1C[C@@H]2CC[C@@H](C)[C@@](O)(O2)C(=O)C(=O)N2CCCC[C@H]2C(=O)O[C@H]([C@H](C)C[C@@H]2CC[C@@H](O)[C@H](OC)C2)CC(=O)[C@H](C)/C=C(\C)[C@@H](O)[C@@H](OC)C(=O)[C@H](C)C[C@H](C)/C=C/C=C/C=C/1C` [rapamycin], the “binding with FKBP in formed blood elements (erythrocytes)” value [2] was “bind reversibly with the binding protein FKBP”, the hemolysis [3] was “does not cause hemolysis” and the blood plasma ratio [4] was 12 ± 2. The blood plasma ratio ([5]; rapamycin 482 ng/ml) was 1.1, the blood plasma ratio [5, 21] was 12 ± 2 and the Kp ([5]; rapamycin 482 ng/ml) was 1.3. The Kp [5, 21] was 23.7 ± 3.9, the restenosis [6] was “inhibits restenosis” and the antitumor activity [7] was “antitumor activity”. For the same compound, the “humoral (IgE-like) antibodies” value [8] was “prevents humoral (IgE-like) antibodies”, the “suppressive activity of Cyclosporin A in T-cell proliferation, IL-2 production and IL-2R expression” value [9] was “potentiates the suppressive activity of Cyclosporin A” and the “immune response in experimental allergic encephalomyolitis” value [10] was “inhibits the immune response”. The blood plasma ratio [11] was 10 ± 6, the “immune response in adjuvant arthritis” value [12] was “inhibits the immune response” and the transplant rejection [13] was “inhibition of transplant rejection”. For the same compound, the blood plasma ratio ([14]; rapamycin 38 ng/ml) was 1.3, the blood plasma ratio ([14]; rapamycin 200 ng/ml) was 0.8 and the Kp ([14]; rapamycin 38 ng/ml) was 1.7. For the same compound, the Kp ([14]; rapamycin 200 ng/ml) was 0.5, the graft rejection [15] was “reduce graft rejection” and the “rejection of the transplanted tissue or organ” value [16] was “reduce rejection of the transplanted tissue or organ”.

For `COc1cccc2c1C(=O)c1c(O)c3c(c(O)c1C2=O)C[C@@](O)(C(C)=O)C[C@@H]3O[C@H]1C[C@H](N)[C@H](O)[C@H](C)O1` [Daunomycin], the “binding to red blood cells” value ([17]; red blood cells first treated with Amphotericin B) is given as “will bind daunomycin” and the “binding to red blood cells” value ([17]; untreated red blood cells) is given as “will not bind to red blood cells”.

In the case of `C=CC[C@@H]1/C=C(\C)C[C@H](C)C[C@H](OC)[C@H]2O[C@@](O)(C(=O)C(=O)N3CCCC[C@H]3C(=O)O[C@H](/C(C)=C/[C@@H]3CC[C@@H](O)[C@H](OC)C3)[C@H](C)[C@@H](O)CC1=O)[C@H](C)C[C@@H]2OC` [FK-506], the “absorption and retention by peripheral blood mononuclear cells and erythrocytes” value [18] is listed as “absorbed and retained”, the “activation of T-lymphocytes” value [19] is listed as “inhibits the activation of T-lymphocytes” and the “binding with FKBP in the erythrocytes” value [20] is listed as “bind reversibly”. For the same compound, the “rejection of the transplanted tissue or organ” value [16] was “reduce rejection of the transplanted tissue or organ”.

In the case of `CC1\C=C/C=C\C=C\C=C\C=C\C=C\C=C\C(OC2OC(C)C(O)C(N)C2O)CC2OC(O)(CC(O)CC(O)CC(O)CC(O)CC(=O)CC(O)CC(=O)OC1C(C)CCC(O)CC(=O)c1ccc(N)cc1)CC(O)C2C(=O)O` (centres unmarked) [vacidin A], the “binding with red blood cells and hemolysis” value [1] is given as “bind with red blood cells and cause hemolysis to occur”.

In the case of `O=P1(N(CCCl)CCCl)NCCCO1` (centres unmarked) [cyclophosphamide], the “rejection of the transplanted tissue or organ” value [16] is listed as “reduce rejection of the transplanted tissue or organ”.

For methylprednisone, the “rejection of the transplanted tissue or organ” value [16] is given as “reduce rejection of the transplanted tissue or organ”.

In the case of cyclosporin A, the “rejection of the transplanted tissue or organ” value [16] is listed as “reduce rejection of the transplanted tissue or organ”.
